Data: patent US11603368B2, “Fused thiophene derivatives and their uses” (ENYO PHARMA, priority 2018, dated 2023)

Assays:
[1] = tested on: H1N1 (influenza A/New Caledonia/20/99); experiment: Antiviral effect on A549 cells infected with H1N1; assay type: cell-based, H1N1 A/New Caledonia/20/99 virus; conditions: Human A549 cells, MOI of 0.1, 48 h post-infection, MUNANA hydrolysis readout
How it was run: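 Human A549 cells were treated with a concentration range of compound and immediately infected with H1N1 A/New Caledonia/20/99 at MOI 0.1 in DMEM with 0.25 μg/ml TPCK trypsin, 37° C. At 48 h, supernatant neuraminidase activity was measured on MUNANA (stock 20 μM) for 1 h at 37° C. 4-MU fluorescence was read at ex 365/em 450 nm.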

NFκB = NFκB reporter assay, TNFα stimulation; assay type: cell-based; conditions: Homo sapiens; A549 NFκB-NanoLuciferase reporter cells, 4 ng/ml TNFα, 6 hours
Text: Compounds of the present invention have been tested for their capacity to inhibit NFκB.
The NFκB reporter construct was made by cloning 5 NFκB responsive elements upstream of a NanoLuciferase reporter gene flanked by AAVS1 genomic sequences.
NFκB Responsive element fused with NanoLuciferase and SV40 late Poly(A) signal was amplified from pNL3.2-NFκB-Nluc (Promega) using NFκB-NLUC-F and NFκB-NLUC-R primers and inserted by Infusion (TaKaRa) in AAVS1 SA-2A-puro-pA donor plasmid (Hockemeyer et al, Nat Biotechnol. 2009, 27, 851-7) digested by Sal1. pCRISPR AAVS1-T2 expressing a guide RNA (gRNA) to target human AAVS1 (T2 target sequence) was constructed by inserting AAVS1-T2A hybridized primers in pLentiCRISPR v2-blast (Sanjana et al, Nat Methods. 2014, 11, 783-4) digested by Bsmb1.
A549 cells were transfected by the plasmids and puromycine selected for 5 days (1 μg mL-1). Then clones were obtained by limiting dilution and selected to maximize TNF dependent NFkB-NanoLuciferase induction.
The reporter cells were seeded on a 96-well plate for overnight with DMEM including 10% FBS. Test compounds were added at varying concentrations. The cells then were treated with 4 ng/ml TNFα (Peprotech, ref E251) in DMEM+10% FBS. NanoGlo luciferase assay (Promega) was carried out 6 hours later. Luminescence was measured using a Spark 20M spectrofluorimeter (Tecan). Values were normalized to the luminescence measured in untreated cells.

[2] = molecular target: T1, CISD3 Gene Product (Miner2) (Homo sapiens, UniProt P0C7P0); experiment: Stability of Fe—S cluster binding of purified NEET protein Miner2; assay type: biochemical
T1 sequence (P0C7P0 15-127): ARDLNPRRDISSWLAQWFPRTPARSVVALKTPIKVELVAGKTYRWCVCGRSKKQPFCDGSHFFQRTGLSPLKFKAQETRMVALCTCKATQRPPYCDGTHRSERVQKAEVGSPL
Procedure: (§1) The modulator effect on the NEET proteins encoded by human CISD1, CISD2, and CISD3 genes by the compounds of the invention has been tested and is reported below. Particularly, the biochemical function of the NEET proteins is measured by the stability of Fe—S cluster binding of the purified NEET proteins.
(§2) The Fe—S cluster binding capacity of NEET proteins is known to be coordinated by four amino-acids in a stretch of 16 (three Cysteine and one Histidine). As the lability of the Fe—S cluster of NEET proteins is sensitive to the environment, cluster stability measurements are one of the measures of interactions of NEET proteins with small molecules and compounds. NEET protein/2Fe-2S cluster stability can be assessed by monitoring the decay in absorbance of its characteristic 458-nm peak (characteristic of the oxidized 2Fe-2S cluster) over time. Each NEET protein (mitoNEET, NAF-1 and Miner 2) was tested for its Fe—S binding in the absence or presence of a compound according to the invention (see table 2 below). The rate of cluster release (time in minutes to achieve 50% loss of bound Fe—S cluster) was compared for each NEET protein in the presence of one of the compounds of the invention (in a 1:3 protein:compound molar ratio) relative to each protein alone.
(§3) At pH 6, all the three NEET proteins (mitoNEET, NAF-1 and Miner 2) have a characteristic rate of loss of the bound Fe—S cluster that can be measured by the decrease of absorbance at wavelength 458 nm over time, using a spectrophotometer. Thus, Bis-Tris buffer (100 mM Bis-Tris pH6, 100 mM Nacl) was used at pH 6 to dilute either DMSO (Blank sample: Bis-Tris Buffer pH 6, 6 μM DMSO), DMSO and one of the three NEET proteins (Control sample: Bis-Tris Buffer pH 6, 6 μM DMSO, 2 μM purified NEET protein) or DMSO, one of the three NEET proteins and a compound of the invention (Test sample: Bis-Tris Buffer pH 6, 6 μM DMSO, […], 6 μM compound of the invention).
(§4) A reaction mix containing DMSO diluted in the Bis-Tris Buffer with or without a compound of the invention was prepared. The purified NEET protein was the last component added to the reaction mix which was then aliquoted into 4 replicates in 96 wells plates. The absorbance at wavelength 458 nm was taken at 5 minutes intervals at 37° C. with a spectrofluorimeter. The assay run time for CISD2 gene product (NAF-1) was 500 minutes and 180 minutes for both the CISD 1 gene product (mitoNEET) and the CISD3 gene product (Miner 2).
(§5) In addition to time monitoring, residual bound Fe—S cluster to NEET protein was measured at the final point of the spectrometry assay for each Test sample and compared to the Control sample data (in parenthesis table 2). This residual binding is measured by the differential percentage between the absorbance 458 nm at time zero and the absorbance 458 nm at the end of the experiment (i.e. respectively 500 or 180 minutes as described hereabove), showing the percentage of NEET protein still able to bind a Fe—S cluster.
(§6) Analysis of the absorbance enables the time for which 50% loss of bound Fe—S cluster is reached (i.e. a 50% absorbance decrease at 458 nm) for each Test sample and each Control sample (in parenthesis table 2) to be determined. The data are then compared to determine whether the compound of the invention stabilizes or destabilizes the NEET protein/Fe—S cluster binding.

[3] = molecular target: T2, CISD1 Gene Product (mitoNEET) (Homo sapiens, UniProt Q9NZ45); experiment: Stability of Fe—S cluster binding of purified NEET protein mitoNEET; assay type: biochemical
T2 sequence (Q9NZ45 33-108 limits assumed): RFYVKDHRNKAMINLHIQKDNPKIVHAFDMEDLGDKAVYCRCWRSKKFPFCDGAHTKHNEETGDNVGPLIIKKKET
Procedure: as §1, §2, §3, §4, §5, §6

[4] = molecular target: T3, CISD2 Gene Product (NAF-1) (Homo sapiens, UniProt Q8N5K1); experiment: Stability of Fe—S cluster binding of purified NEET protein NAF-1; assay type: biochemical; conditions: pH 6, 37° C., 1:3 protein:compound molar ratio
T3 sequence (Q8N5K1 57-135 limits assumed): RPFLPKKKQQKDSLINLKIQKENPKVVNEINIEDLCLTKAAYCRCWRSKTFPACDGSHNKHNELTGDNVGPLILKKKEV
Procedure: as §1, §2, §3, §4, §5, §6

[5] = Influenza A virus, H1N1, A549, 48 h
[6] = time to 50% Fe—S cluster bound loss changed by more than 25% vs Control sample, at the concentrations tested

Compound COc1ccc(C(=O)Nc2sc3c(c2C(=O)O)CCC(C(C)(C)C)C3)cc1 (centres unmarked) [#1] has an IC50 [1, 5] of 54.8 nM and an EC50 (NFκB) of 160 nM.

For CC(C)(C)C1CCc2c(sc(NC(=O)c3ccc(Cl)cc3)c2C(=O)O)C1 (centres unmarked) [#10], the “Time (in minutes) to achieve 50% loss of bound cluster (Absorbance 458 nm), CISD3 Gene Product (Miner2)” value ([2]; pH 6, 37° C., 1:3 protein:compound molar ratio, 6 μM compound, run time 180 minutes, Vehicle Control 60) was “during 180 minutes”, the “Residual cluster bound at end of experiment (Percentage Absorbance 458 nm at time zero), CISD3 Gene Product (DMSO 11%)” value ([2]; pH 6, 37° C., 1:3 protein:compound molar ratio, end of 180 minutes, Vehicle Control 11%) was 56% and the “stabiliser or destabiliser of Fe—S cluster binding, CISD3 Gene Product (Miner2)” value [2, 6] was “Stabilisers”. The IC50 [1, 5] was 26 nM, the “Time (in minutes) to achieve 50% loss of bound cluster (Absorbance 458 nm), CISD1 Gene Product (mitoNEET)” value ([3]; pH 6, 37° C., 1:3 protein:compound molar ratio, 6 μM compound, run time 180 minutes, Vehicle Control 80) was “during 180 minutes” and the “Residual cluster bound at end of experiment (Percentage Absorbance 458 nm at time zero), CISD1 Gene Product (mitoNEET)” value ([3]; pH 6, 37° C., 1:3 protein:compound molar ratio, end of 180 minutes, Vehicle Control 16%) was 62%. For the same compound, the “stabiliser or destabiliser of Fe—S cluster binding, CISD1 Gene Product (mitoNEET)” value [3, 6] was “stabilisers”, the EC50 (NFκB) was 300 nM and the “Time (in minutes) to achieve 50% loss of bound cluster (Absorbance 458 nm), CISD2 Gene Product (NAF-1)” value ([4]; 6 μM compound, run time 500 minutes, Vehicle Control 310) was 290 min. For the same compound, the “Residual cluster bound at end of experiment (Percentage Absorbance 458 nm at time zero), CISD2 Gene Product (NAF-1)” value ([4]; end of 500 minutes, Vehicle Control 3%) was 42%.

CC(C)(C)C1CCc2c(sc(NC(=O)c3ccccc3F)c2C(=O)O)C1 (centres unmarked) [#69] showed an IC50 [1] of 120 nM and an EC50 (NFκB) of 320 nM.
